In patent US20230365537A1, “POLO LIKE KINASE 4 INHIBITORS” (ORIC Pharmaceuticals, Inc., priority 2021, published 2023):

How the values were obtained:
[1] = molecular target: human recombinant PLK4 (Homo sapiens (Human), UniProt O00444); assay: PLK4 Biochemical Assay (ADP-Glo); settings: 0.5 nM PLK4, 8.0 µM ATP, 4.7 µM MBP, 6 hours at RT
In short: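 Recombinant human PLK4 (added at 1.0 nM) was preincubated 15 min at RT with compound in 50 mM HEPES pH 7.5, 10 mM MgCl2, 1 mM EGTA, 1 mM DTT, 0.01% Brij-35, 0.01% BSA. ADP formed was detected by ADP-Glo luminescence (40 min ATP depletion, 30 min detection). IC50 came from a four-parameter fit.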

[2] = system: CHP-134 cells; assay: CHP134 CellTiter-Glo (CTG) Assay; assay type: cell-based; settings: 5 days, viable cells by CellTiter-Glo
Method: Cells were seeded (200 cells/well) in 384-well plates for 16 hours. On day two, nine serial 1:3 compound dilutions were made in DMSO in a 96-well plate. The compounds were then further diluted into growth media using a BRAVO robot (Agilent, Santa Clara, CA). The diluted compounds were then added to quadruplicate wells in the 384-well cell plate and incubated at 37° C. and 5% CO2. After 5 days, relative numbers of viable cells were measured by luminescence using CellTiter-Glo® (Promega) according to the manufacturer’s instructions and read on a SPARK Multimode Microplate Reader (Tecan, Mannedorf Switzerland). The IC50 calculations for the values reported in Table 2 were carried out using Prism 6.0 software (GraphPad, San Diego).

[3] = molecular target: human recombinant Aurora A (Homo sapiens (Human), UniProt O14965); assay: Aurora A Kinase Biochemical Assay (ADP-Glo); settings: ratio of Aurora A IC50 to PLK4 IC50 (selectivity)
[4] = molecular target: human recombinant Aurora B (Homo sapiens (Human), UniProt Q96GD4); assay: Aurora B Kinase Biochemical Assay (ADP-Glo); settings: ratio of Aurora B IC50 to PLK4 IC50 (selectivity)
In short: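 Recombinant human Aurora B (20 nM in pH 7.5 HEPES buffer with MgCl2, EGTA, DTT, Brij-35, BSA) preincubated with compound 15 min at RT. ADP formed quantified by ADP-Glo luminescence after ATP depletion (40 min) and detection (30 min). IC50 from four-parameter non-linear regression.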

Sequence of human recombinant Aurora A (O14965 whole entry): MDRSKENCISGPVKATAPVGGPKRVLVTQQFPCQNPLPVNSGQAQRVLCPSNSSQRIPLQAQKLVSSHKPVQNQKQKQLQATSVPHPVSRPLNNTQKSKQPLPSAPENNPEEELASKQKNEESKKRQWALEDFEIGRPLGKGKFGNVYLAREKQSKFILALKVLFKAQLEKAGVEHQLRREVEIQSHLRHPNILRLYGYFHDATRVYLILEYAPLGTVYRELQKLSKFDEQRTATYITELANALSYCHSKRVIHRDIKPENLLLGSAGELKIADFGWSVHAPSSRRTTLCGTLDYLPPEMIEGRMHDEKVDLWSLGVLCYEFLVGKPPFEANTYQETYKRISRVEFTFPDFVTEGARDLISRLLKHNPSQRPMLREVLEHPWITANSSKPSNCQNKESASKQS
Sequence of human recombinant Aurora B (Q96GD4 whole entry): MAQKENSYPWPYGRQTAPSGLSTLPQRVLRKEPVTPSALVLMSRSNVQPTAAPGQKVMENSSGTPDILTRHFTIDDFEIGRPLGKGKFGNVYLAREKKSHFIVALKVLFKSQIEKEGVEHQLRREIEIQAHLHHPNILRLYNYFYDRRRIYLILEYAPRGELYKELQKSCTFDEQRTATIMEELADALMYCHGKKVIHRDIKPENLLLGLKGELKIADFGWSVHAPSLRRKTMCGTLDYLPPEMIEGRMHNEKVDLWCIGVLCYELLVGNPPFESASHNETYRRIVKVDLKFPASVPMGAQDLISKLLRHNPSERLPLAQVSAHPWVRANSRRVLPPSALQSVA
Sequence of human recombinant PLK4 (O00444 whole entry): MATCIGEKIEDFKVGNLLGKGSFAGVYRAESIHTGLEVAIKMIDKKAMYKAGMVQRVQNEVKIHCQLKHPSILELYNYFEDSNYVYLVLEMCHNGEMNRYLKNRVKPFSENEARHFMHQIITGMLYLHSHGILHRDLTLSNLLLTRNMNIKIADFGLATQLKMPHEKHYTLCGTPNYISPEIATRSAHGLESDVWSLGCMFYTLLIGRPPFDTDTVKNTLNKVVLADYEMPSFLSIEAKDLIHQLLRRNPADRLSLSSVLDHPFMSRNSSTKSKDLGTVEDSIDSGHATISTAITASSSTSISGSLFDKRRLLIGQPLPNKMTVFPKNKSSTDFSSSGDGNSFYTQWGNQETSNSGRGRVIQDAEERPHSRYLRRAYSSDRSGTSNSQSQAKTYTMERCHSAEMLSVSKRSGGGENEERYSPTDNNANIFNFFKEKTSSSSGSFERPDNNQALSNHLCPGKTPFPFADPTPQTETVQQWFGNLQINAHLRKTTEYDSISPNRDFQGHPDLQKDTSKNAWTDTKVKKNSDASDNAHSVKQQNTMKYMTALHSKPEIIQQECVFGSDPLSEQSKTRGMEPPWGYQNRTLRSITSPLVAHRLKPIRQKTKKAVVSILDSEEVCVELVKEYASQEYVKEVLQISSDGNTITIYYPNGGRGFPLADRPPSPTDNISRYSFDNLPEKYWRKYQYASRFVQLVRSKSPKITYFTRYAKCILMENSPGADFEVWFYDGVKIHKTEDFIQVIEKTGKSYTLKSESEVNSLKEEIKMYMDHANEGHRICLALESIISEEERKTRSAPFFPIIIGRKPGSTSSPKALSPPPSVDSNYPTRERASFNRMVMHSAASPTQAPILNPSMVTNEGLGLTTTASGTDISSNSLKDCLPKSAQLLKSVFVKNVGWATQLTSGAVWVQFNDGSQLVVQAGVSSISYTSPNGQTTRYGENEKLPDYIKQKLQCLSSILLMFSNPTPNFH

SMILES | IC50 [1] [nM] | [Aurora A IC50 (nM)]/[PLK4 IC50 (nM)] [3] | [Aurora B IC50 (nM)]/[PLK4 IC50 (nM)] [4] | IC50 ([2]; Homo sapiens, CHP-134, 120 h) [nM] | IC50 [2] [nM]
COc1ccc2c(c1)[C@]1(C[C@H]1c1ccc3c(Nc4nc(C5CCOC5)ncc4OC)n[nH]c3c1)C(=O)N2 (single isomer, unassigned) [Example 201] | 1.71 | 485.6389 | 229.0739 | 455 | 
COc1ccc2c(c1)[C@]1(C[C@H]1c1ccc3c(Nc4ccc([S+](C)[O-])nc4OC)n[nH]c3c1)C(=O)N2 (single isomer, unassigned) [Example 239] | 1.69 | 1429.5857 | 466.8047 |  | 949
COc1ccc2c(c1)[C@]1(C[C@H]1c1ccc3c(Nc4ccc([S+](C)[O-])nc4OC)n[nH]c3c1)C(=O)N2 (single isomer, unassigned) [Example 240] | 2.18 | 735.1996 | 102.4323 |  | 422
COc1ccc2c(c1)[C@]1(C[C@H]1c1ccc3c(Nc4nc(Cl)ncc4OC)n[nH]c3c1)C(=O)N2 [Example 10, (1R,2S)-2-{3-[(2-Chloro-5-methoxypyrimidin-4-yl)amino]-1H-indazol-6-yl}-5′-methoxyspiro[cyclopropane-1,3′-indol]-2′(1′H)-one] | 1.59 | 954.6314 | 103.0876 | 438 | 
COc1ccc2c(c1)[C@]1(C[C@H]1c1ccc3c(Nc4ncnc(N5CCOCC5)c4OC)n[nH]c3c1)C(=O)N2 [Example 11, (1R,2S)-5′-Methoxy-2-(3-{[5-methoxy-6-(morpholin-4-yl)pyrimidin-4-yl)amino}-1H-indazol-6-yl)spiro[cyclopropane-1,3′-indol]-2′(1′H)-one] | 4.88 | 3277.276 | 77.87 | 2950 | 
COc1ccc2c(c1)[C@]1(C[C@H]1c1ccc3c(Nc4nc(OC)ncc4Cl)n[nH]c3c1)C(=O)N2 [Example 23, (1R,2S)-2-{3-[(5-chloro-2-methoxypyrimidin-4-yl)amino]-1H-indazol-6-yl}-5′-methoxyspiro[cyclopropano-1,3′-indol]-2′(1′H)-one] | 5.05 | 215.5309 | 170.7409 | 45.9 | 

Further lines, with some results ahead:

IC50 [1] [nM] | [Aurora A IC50 (nM)]/[PLK4 IC50 (nM)] [3] | [Aurora B IC50 (nM)]/[PLK4 IC50 (nM)] [4] | SMILES | IC50 ([2]; Homo sapiens, CHP-134, 120 h) [nM] | IC50 [2] [nM]
0.694 | 4791.187 | 240.6394 | COc1ccc2c(c1)[C@]1(C[C@H]1c1ccc3c(Nc4ncnc(N5CCOCC5)c4Cl)n[nH]c3c1)C(=O)N2 [Example 9, (1R,2S)-2-(3-{[5-Chloro-6-(morpholin-4-yl)pyrimidin-4-yl]amino}-1H-indazol-6-yl)-5′-methoxyspiro[cyclopropane-1,3′-indol]-2′(1′H)-one] | 99.7 | 
4.96 |  |  | COc1ccc2c(c1)[C@]1(C[C@H]1c1ccc3c(Nc4ncnc(N5CCCCC5)c4OC)n[nH]c3c1)C(=O)N2 [Example 12, (1R.2S)-5′-Methoxy-2-(3-{[5-methoxy-6-(piperidin-1-yl)pyrimidin-4-yl]amino}-1H-indazol-6-yl)spiro[cyclopropane-1,3′-indol]-2′(1′H)-one] | 2030 | 
2.25 | 4489.796 | 306.8323 | COc1ccc2c(c1)[C@]1(C[C@H]1c1ccc3c(Nc4ncnc(N5CCN(C)CC5)c4Cl)n[nH]c3c1)C(=O)N2 [Example 20, (1R,2S)-2-(3-{[5-chloro-6-(4-methylpiperazin-1-yl)pyrimidin-4-yl]amino}-1H-indazol-6-yl)-5′-methoxyspiro[cyclopropane-1,3′-indol]-2′(1′H)-one] | 263 | 
